Measured values: patent publication US20210261621A1, “Preparation of Dilipid Polymixins and Use Thereof as Antimicrobial Adjuvants” (priority 2018, published 2021)
Values after ≈ are worked out from the molar mass of the structure shown. Read-outs that look alike come from different tables or passages of the source. Positions of bridges follow the written chain, without caps; N, C: chain ends. Non-standard residues stand in square brackets, D forms with d. Residues, ends and D or L forms follow the SMILES beside them. *: point of attachment. Lauroyl = CCCCCCCCCCCC(=O)*; Dab = NCC[C@H](N)C(=O)O; Butyryl = CCCC(=O)*

Experiments:
[1] = test system: P. aeruginosa PAO750; conditions: P. aeruginosa PAO750, efflux-deficient strain that lacks five pumps and OpmH
Excerpt: (§1) To our curiosity, we explored whether efflux can affect the activity of polymyxins. It is widely accepted that polymyxins disrupt Gram-negative bacterial membranes that result to intracellular component leakage and bacterial cell death. However, for this to occur requires the agent to reach the periplasmic space to interact and disrupt the inner membrane. Active efflux may potentially expel polymyxins out of the periplasm, effectively reducing its periplasmic and intracellular concentrations. To study the effect of efflux on polymyxins in Gram-negative pathogens, we used P. aeruginosa as they inherently overexpress efflux systems such as MexAB-OprM, MexCD-OprJ and MexXY-OprM. Moreover, antibiotic substrates for these efflux systems are mostly characterized. We evaluated and compared the activity of the dilipid polymyxins, colistin and PMBN against wild-type PAO1 and two efflux-deficient P. aeruginosa isogenic mutants (Table 5). The strain PAO200 lacks the MexAB-OprM efflux system while strain PAO750 lacks five clinically-relevant pumps (MexAB-OprM, MexCD-OprJ, MexEF-OprN, MexJK and MexXY) and outer membrane protein OpmH.
(§2) Bacterial strains were either obtained from the American Type Culture Collection (ATCC), Canadian National Intensive Care Unit (CAN-ICU) surveillance study or the Canadian Ward Surveillance (CANWARD) study. Strains from both CAN-ICU and CANWARD are isolates recovered from patients diagnosed with a presumed infectious disease that were admitted in a participating medical center across Canada. Efflux-deficient strain PAO200 (lacking MexAB-OprM efflux system) and PA0750 (lacking MexAB-OprM, MexCD-OprJ, MexEF-OprN, MexJK and MexXY efflux systems, and the outer membrane protein OpmH) were kindly gifted by Dr. Ayush Kumar (University of Manitoba).
(§3) The in vitro antibacterial activity of the compounds studied were assessed by broth microdilution susceptibility testing following CLSI guidelines. Bacterial cultures were grown overnight prior to the assay. The overnight grown cultures were diluted in saline to 0.5 McFarland turbidity, followed by 1:50 dilution in Mueller-Hinton broth (MHB) for inoculation to a final concentration of approximately 5×10^5 colony forming units/mL. Testing was performed on 96-well plates where the tested compounds were 2-fold serially diluted in MHB and incubated with equal volumes of bacterial inoculum at 37° C. for 18 h. […] Wells containing MHB with or without bacterial cells were used as positive or negative control, respectively.

[2] = test system: P. aeruginosa PAO200; conditions: for MIC: P. aeruginosa PAO200, efflux-deficient strain that lacks the MexAB-OprM pump
Excerpt: as §1, §2, §3

[3] = test system: E. cloacae 117029; format: cell-based, Enterobacter cloacae; conditions: 117029
Excerpt: as §2, §3

[4] = test system: K. pneumoniae ATCC 13883; format: cell-based, Klebsiella pneumoniae; conditions: K. pneumoniae ATCC 13883
Excerpt: as §2, §3

[5] = test system: K. pneumoniae 116381; format: cell-based, Klebsiella pneumoniae; conditions: K. pneumoniae 116381
Excerpt: as §2, §3

[6] = test system: MSSE CANWARD-2008 81388; format: cell-based, Staphylococcus epidermidis; conditions: MSSE CANWARD-2008 81388 (methicillin-susceptible Staphylococcus epidermidis)
Excerpt: as §2, §3

[7] = test system: S. maltophilia CAN-ICU 62584; format: cell-based, Stenotrophomonas maltophilia
Excerpt: as §2, §3

[8] = test system: P. aeruginosa PA100036; format: cell-based, Pseudomonas aeruginosa
Excerpt: as §2, §3

[9] = test system: P. aeruginosa PA260-97103; format: cell-based, Pseudomonas aeruginosa; conditions: PA260-97103
Excerpt: as §2, §3

[10] = test system: P. aeruginosa PA095; format: cell-based, Pseudomonas aeruginosa; conditions: PA095
Excerpt: as §2, §3

[11] = test system: P. aeruginosa PA259-96918; format: cell-based, Pseudomonas aeruginosa; conditions: PA259-96918
Excerpt: as §2, §3

[12] = test system: P. aeruginosa ATCC 27853; format: cell-based, Pseudomonas aeruginosa; conditions: P. aeruginosa ATCC 27853
Excerpt: as §2, §3

[13] = test system: P. aeruginosa PA264-104354; format: cell-based, Pseudomonas aeruginosa; conditions: PA264-104354
Excerpt: as §2, §3

[14] = test system: P. aeruginosa PA101885; format: cell-based, Pseudomonas aeruginosa; conditions: PA101885
Excerpt: as §2, §3

[15] = test system: P. aeruginosa PAO1; format: cell-based, Pseudomonas aeruginosa
Excerpt: as §2, §3

[16] = test system: P. aeruginosa CAN-ICU 62308; format: cell-based, Pseudomonas aeruginosa
Excerpt: as §2, §3

[17] = test system: MRSE CAN-ICU 61589; format: cell-based, S. epidermidis
Excerpt: as §2, §3

[18] = test system: A. baumannii CAN-ICU 63169; format: cell-based, Acinetobacter baumannii
Excerpt: as §2, §3

[19] = test system: A. baumannii ATCC 17978; format: cell-based, Acinetobacter baumannii; conditions: A. baumannii ATCC 17978
Excerpt: as §2, §3

[20] = test system: A. baumannii AB031; format: cell-based, Acinetobacter baumannii
Excerpt: as §2, §3

[21] = test system: A. baumannii LAC-4; format: cell-based, Acinetobacter baumannii
Excerpt: as §2, §3

[22] = test system: A. baumannii 110193; format: cell-based, Acinetobacter baumannii; conditions: A. baumannii 110193
Excerpt: as §2, §3

[23] = test system: A. baumannii AB027; format: cell-based, Acinetobacter baumannii
Excerpt: as §2, §3

[24] = test system: E. faecalis ATCC 29212; format: cell-based
Excerpt: as §2, §3

[25] = test system: S. pneumoniae ATCC 49619; format: cell-based
Excerpt: as §2, §3

[26] = test system: E. faecium ATCC 27270; format: cell-based
Excerpt: as §2, §3

SMILES | MIC [1] | MIC [2] | MIC [3] | MIC [4] | MIC [5] | MIC [6] | MIC [9] | MIC [10] | MIC [11] | MIC [12] | MIC [13] | MIC [14] | MIC [19] | MIC [22] | other results
CCCCCCCCCCCC(=O)NCC[C@H](NC(=O)CCCCCCCCCCC)C(=O)N[C@H](C(=O)N[C@@H](CCN)C(=O)N[C@H]1CCNC(=O)[C@H]([C@@H](C)O)NC(=O)[C@H](CCN)NC(=O)[C@H](CCN)NC(=O)[C@H](CC(C)C)NC(=O)[C@@H](Cc2ccccc2)NC(=O)[C@H](CCN)NC1=O)[C@@H](C)O [Compound 3, Didodecanoic Acid (Di-C12) Polymyxin] (Lauroyl-[Dab](Lauroyl)T[Dab][Dab][Dab][dF]L[Dab][Dab]T; lactam 4-C) | 32 µg/mL (≈ 22.4 µM) | 32 µg/mL (≈ 22.4 µM) | 16 µg/mL (≈ 11.2 µM) | >128 µg/mL | >128 µg/mL | 64 µg/mL (≈ 44.8 µM) | 32 µg/mL (≈ 22.4 µM) | 8 µg/mL (≈ 5.6 µM) | 16 µg/mL (≈ 11.2 µM) | >128 µg/mL | 64 µg/mL (≈ 44.8 µM) | 32 µg/mL (≈ 22.4 µM) | >128 µg/mL | >128 µg/mL | MIC ([7]; CAN-ICU 62584): 128 µg/mL (≈ 89.6 µM); MIC ([8]; PA100036): 32 µg/mL (≈ 22.4 µM); MIC ([15]; PAO1): 32 µg/mL (≈ 22.4 µM); MIC ([16]; CAN-ICU 62308): 64 µg/mL (≈ 44.8 µM); MIC ([17]; CAN-ICU 61589): 64 µg/mL (≈ 44.8 µM); MIC ([18]; CAN-ICU 63169): 128 µg/mL (≈ 89.6 µM); MIC ([20]; AB031): 64 µg/mL (≈ 44.8 µM); MIC ([21]; A. baumannii LAC-4): >128 µg/mL; MIC ([23]; AB027): 128 µg/mL (≈ 89.6 µM); MIC ([24]; ATCC 29212): 64 µg/mL (≈ 44.8 µM); MIC ([25]; ATCC 49619): 64 µg/mL (≈ 44.8 µM); MIC ([26]; ATCC 27270): 8 µg/mL (≈ 5.6 µM)
CCCC(=O)NCC[C@H](NC(=O)CCC)C(=O)N[C@H](C(=O)N[C@@H](CCN)C(=O)N[C@H]1CCNC(=O)[C@H]([C@@H](C)O)NC(=O)[C@H](CCN)NC(=O)[C@H](CCN)NC(=O)[C@H](CC(C)C)NC(=O)[C@@H](Cc2ccccc2)NC(=O)[C@H](CCN)NC1=O)[C@@H](C)O [Compound 1, Dibutyric Acid (Di-C4) Polymyxin] (Butyryl-[Dab](Butyryl)T[Dab][Dab][Dab][dF]L[Dab][Dab]T; lactam 4-C) | 8 µg/mL (≈ 6.65 µM) | 4 µg/mL (≈ 3.32 µM) | 64 µg/mL (≈ 53.2 µM) | >128 µg/mL | >128 µg/mL | >128 µg/mL | 2 µg/mL (≈ 1.66 µM) | 64 µg/mL (≈ 53.2 µM) | 64 µg/mL (≈ 53.2 µM) | >128 µg/mL | 128 µg/mL (≈ 106 µM) | 128 µg/mL (≈ 106 µM) | >128 µg/mL | >128 µg/mL | fold difference in MIC against wild-type PAO1 and efflux-deficient PAO200 ([2]; PAO1 versus PAO200 (lacks MexAB-OprM)): 32 fold; MIC ([7]; S. maltophilia CAN-ICU 62584): >128 µg/mL; MIC ([8]; P. aeruginosa PA100036): >128 µg/mL; MIC ([15]; P. aeruginosa PAO1 (wild type)): 128 µg/mL (≈ 106 µM); MIC ([16]; P. aeruginosa CAN-ICU 62308): >128 µg/mL; MIC ([17]; MRSE CAN-ICU 61589 (methicillin-resistant S. epidermidis)): >128 µg/mL; MIC ([18]; A. baumannii CAN-ICU 63169): >128 µg/mL; MIC ([20]; A. baumannii AB031): >128 µg/mL; MIC ([21]; LAC-4): 128 µg/mL (≈ 106 µM); MIC ([23]; A. baumannii AB027): >128 µg/mL; MIC ([24]; E. faecalis ATCC 29212): >128 µg/mL; MIC ([25]; S. pneumoniae ATCC 49619): >128 µg/mL; MIC ([26]; E. faecium ATCC 27270): >128 µg/mL
